From patent US20120142667A1, “PYRIMIDINE DERIVATIVES AS ZAP-70 INHIBITORS” (priority 2009, published 2012)

Experiments:
[1] = system: Calcium Ion Release in Cells; assay: calcium release assay (measurement of calcium ion release in cells); assay type: cell-based; conditions: calcium release assay as described in WO-A 2009/080638
ZAP-70 = molecular target: T1, ZAP-70 (Homo sapiens, UniProt P43403); assay: ZAP-70 kinobeads assay; assay type: binding; conditions: cell lysate
T1 construct: endogenous in cells; host or cells: cell lysate
T1 sequence (P43403 1-619): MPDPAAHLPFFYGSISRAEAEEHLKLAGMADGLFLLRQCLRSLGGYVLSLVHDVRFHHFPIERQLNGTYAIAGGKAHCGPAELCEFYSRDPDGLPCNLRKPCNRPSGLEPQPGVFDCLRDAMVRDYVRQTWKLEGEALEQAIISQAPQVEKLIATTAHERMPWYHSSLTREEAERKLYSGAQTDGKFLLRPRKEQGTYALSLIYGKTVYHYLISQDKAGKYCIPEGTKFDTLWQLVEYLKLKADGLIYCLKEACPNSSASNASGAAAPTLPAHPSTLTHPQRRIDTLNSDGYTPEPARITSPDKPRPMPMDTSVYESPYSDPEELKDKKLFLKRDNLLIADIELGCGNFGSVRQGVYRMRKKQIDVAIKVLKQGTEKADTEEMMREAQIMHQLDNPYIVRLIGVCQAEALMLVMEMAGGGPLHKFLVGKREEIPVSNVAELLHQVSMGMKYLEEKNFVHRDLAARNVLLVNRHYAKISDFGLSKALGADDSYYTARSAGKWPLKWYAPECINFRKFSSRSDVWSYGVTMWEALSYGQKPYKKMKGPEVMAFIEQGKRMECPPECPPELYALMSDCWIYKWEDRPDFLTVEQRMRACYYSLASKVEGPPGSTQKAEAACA
Method in brief: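 Competition binding: compounds at various concentrations incubated with cell lysate plus affinity matrix bearing immobilized aminopyrido-pyrimidine ligand 24. ZAP-70 retained on beads eluted and quantified by specific-antibody dot blot with infrared detection.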

IC50 [1]: ≤ 1 µM
IC50 (ZAP-70): 0.1 to 1 µM
SMILES: COc1ccc(Nc2nc(Nc3cc(CCC(N)=O)ccc3OC)ncc2Cl)c(NS(C)(=O)=O)c1 [Example 113, 3-(3-(5-chloro-4-(4-methoxy-2-(methylsulfonamido)phenylamino)pyrimidin-2-ylamino)-4-methoxyphenyl)propanamide]
